# Results published in patent US8329706B2, “Oxazolidinone derivatives” (Actelion Pharmaceuticals Ltd., priority 2009, dated 2012).
# Key:
# human orexin-1 receptor = target: T1, human orexin-1 receptor (Homo sapiens, UniProt O43613); experiment: FLIPR intracellular calcium assay, orexin receptor antagonistic activity (OX1); type: cell-based; conditions: CHO cells expressing human orexin-1 receptor; agonist 3 nM orexin-A; normalized to on-plate reference; * geomean n = 5, *2 geomean n = 2
# T1 construct: expressed in transfected cells; host or cells: CHO cells (G418 selection)
# T1 sequence (O43613 1-425): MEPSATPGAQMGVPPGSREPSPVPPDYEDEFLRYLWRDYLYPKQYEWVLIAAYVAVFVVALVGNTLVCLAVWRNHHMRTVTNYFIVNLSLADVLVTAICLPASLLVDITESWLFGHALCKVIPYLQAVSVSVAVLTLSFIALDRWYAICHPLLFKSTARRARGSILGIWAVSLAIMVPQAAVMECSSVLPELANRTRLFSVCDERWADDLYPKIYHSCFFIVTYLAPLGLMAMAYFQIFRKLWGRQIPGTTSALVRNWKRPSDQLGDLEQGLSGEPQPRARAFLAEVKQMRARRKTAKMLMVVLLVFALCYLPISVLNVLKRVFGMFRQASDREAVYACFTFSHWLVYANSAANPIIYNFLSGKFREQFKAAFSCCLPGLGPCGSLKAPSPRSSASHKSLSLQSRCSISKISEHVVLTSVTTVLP
# Description: (§1) The orexin receptor antagonistic activity of the compounds of formula (I) is determined in accordance with the following experimental method.
# (§2) Chinese hamster ovary (CHO) cells expressing the human orexin-1 receptor and the human orexin-2 receptor, respectively, are grown in culture medium (Ham F-12 with L-Glutamine) containing 300 μg/ml G418, 100 U/ml penicillin, 100 μg/ml streptomycin and 10% heat inactivated fetal calf serum (FCS). The cells are seeded at 20′000 cells/well into 384-well black clear bottom sterile plates (Greiner). The seeded plates are incubated overnight at 37° C. in 5% CO2.
# (§3) Human orexin-A as an agonist is prepared as 1 mM stock solution in MeOH:water (1:1), diluted in HBSS containing 0.1% bovine serum albumin (BSA), NaHCO3: 0.375 g/l and 20 mM HEPES for use in the assay at a final concentration of 3 nM.
# (§4) Antagonists are prepared as 10 mM stock solution in DMSO, then diluted in 384-well plates using DMSO followed by a transfer of the dilutions into in HBSS containing 0.1% bovine serum albumin (BSA), NaHCO3: 0.375 g/l and 20 mM HEPES. On the day of the assay, 50 μl of staining buffer (HBSS containing 1% FCS, 20 mM HEPES, NaHCO3: 0.375 g/l, 5 mM probenecid (Sigma) and 3 μM of the fluorescent calcium indicator fluo-4 AM (1 mM stock solution in DMSO, containing 10% pluronic) is added to each well. The 384-well cell-plates are incubated for 50 min at 37° C. in 5% CO2 followed by equilibration at rt for 30-120 min before measurement.
# (§5) Within the Fluorescent Imaging Plate Reader (FLIPR Tetra, Molecular Devices), antagonists are added to the plate in a volume of 10 μl/well, incubated for 10 min and finally 10 μl/well of agonist is added. Fluorescence is measured for each well at 1 second intervals, and the height of each fluorescence peak is compared to the height of the fluorescence peak induced by 3 nM orexin-A with vehicle in place of antagonist. For each antagonist, the IC50 value (the concentration of compound needed to inhibit 50% of the agonistic response) is determined and normalized using the obtained IC50 value of a on-plate reference compound. Optimized conditions were achieved by adjustment of pipetting speed and cell splitting regime. The calculated IC50 values of the compounds may fluctuate depending on the daily cellular assay performance. Fluctuations of this kind are known to those skilled in the art.
# human orexin-2 receptor = target: T2, human orexin-2 receptor (Homo sapiens, UniProt O43614); experiment: FLIPR intracellular calcium assay, orexin receptor antagonistic activity (OX2); type: cell-based; conditions: CHO cells expressing human orexin-2 receptor; agonist 3 nM orexin-A; normalized to on-plate reference; * geomean n = 5, *2 geomean n = 2
# T2 construct: expressed in transfected cells; host or cells: CHO cells (G418 selection)
# T2 sequence (O43614 1-444): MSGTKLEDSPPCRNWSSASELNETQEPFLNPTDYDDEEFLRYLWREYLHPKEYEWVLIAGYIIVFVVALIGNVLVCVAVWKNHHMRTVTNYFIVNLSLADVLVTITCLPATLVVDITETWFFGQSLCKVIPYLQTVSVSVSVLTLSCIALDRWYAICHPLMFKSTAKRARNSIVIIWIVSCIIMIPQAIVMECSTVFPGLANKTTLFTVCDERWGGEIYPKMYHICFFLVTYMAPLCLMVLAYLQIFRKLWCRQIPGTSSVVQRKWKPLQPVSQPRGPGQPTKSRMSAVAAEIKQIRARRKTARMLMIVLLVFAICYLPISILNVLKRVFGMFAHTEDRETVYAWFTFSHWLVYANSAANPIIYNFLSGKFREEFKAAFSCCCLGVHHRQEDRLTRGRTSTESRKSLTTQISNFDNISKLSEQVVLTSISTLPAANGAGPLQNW
# Description: as §1, §2, §3, §4, §5
smiles,measurement,setting,value
"COc1cccc(OC)c1C1O[C@@H](C)C(=O)N1Cc1ccc(Oc2ccccc2)cc1 (stereo partly drawn) [Example 59, 2-(2,6-Dimethoxy-phenyl)-(S)-5-methyl-3-(4-phenoxy-benzyl)-oxazolidin-4-one]",IC50,human orexin-1 receptor,2130 nM
same,IC50,human orexin-2 receptor,150 nM
"COc1cccc(OC)c1C1OCC(=O)N1Cc1ccc(OC(C)C)cc1 (stereo not shown) [Example 60, 2-(2,6-Dimethoxy-phenyl)-3-(4-isopropoxy-benzyl)-oxazolidin-4-one]",IC50,human orexin-1 receptor,3240 nM
same,IC50,human orexin-2 receptor,159 nM
"COc1cccc(OC)c1C1OC(C)(C)C(=O)N1Cc1ccc(OC(F)(F)F)cc1 (stereo not shown) [Example 61, 2-(2,6-Dimethoxy-phenyl)-5,5-dimethyl-3-(4-trifluoromethoxy-benzyl)-oxazolidin-4-one]",IC50,human orexin-1 receptor,29 nM
same,IC50,human orexin-2 receptor,160 nM
"COc1cccc(OC)c1C1O[C@H](C)C(=O)N1Cc1nc2ccccc2s1 (stereo partly drawn) [Example 62, 3-Benzothiazol-2-ylmethyl-2-(2,6-dimethoxy-phenyl)-(R)-5-methyl-oxazolidin-4-one]",IC50,human orexin-1 receptor,2870 nM
same,IC50,human orexin-2 receptor,193 nM
"COc1cccc(OC)c1C1O[C@H](C)C(=O)N1Cc1ccc(OC(F)(F)F)cc1 (stereo partly drawn) [Example 63, 2-(2,6-Dimethoxy-phenyl)-(R)-5-methyl-3-(4-trifluoromethoxy-benzyl)-oxazolidin-4-one]",IC50,human orexin-1 receptor,260 nM
same,IC50,human orexin-2 receptor,216 nM
"COc1cccc(OC)c1C1OC(C)(C)C(=O)N1Cc1nc2ccccc2s1 (stereo not shown) [Example 64, 3-Benzothiazol-2-ylmethyl-2-(2,6-dimethoxy-phenyl)-5,5-dimethyl-oxazolidin-4-one]",IC50,human orexin-1 receptor,411 nM
same,IC50,human orexin-2 receptor,222 nM
"COc1cccc(OC)c1C1OCC(=O)N1Cc1ccc(OCC2CC2)cc1 (stereo not shown) [Example 65, 3-(4-Cyclopropylmethoxy-benzyl)-2-(2,6-dimethoxy-phenyl)-oxazolidin-4-one]",IC50,human orexin-1 receptor,6320 nM
same,IC50,human orexin-2 receptor,243 nM
"COc1cccc(OC)c1C1O[C@@H](C)C(=O)N1Cc1ccc2ccccc2c1 (stereo partly drawn) [Example 66, 2-(2,6-Dimethoxy-phenyl)-(S)-5-methyl-3-naphthalen-2-ylmethyl-oxazolidin-4-one]",IC50,human orexin-1 receptor,421 nM
same,IC50,human orexin-2 receptor,266 nM
"COc1cccc(OC)c1C1OC(C)(C)C(=O)N1Cc1ccc(OC(F)(F)F)c(F)c1 (stereo not shown) [Example 67, 2-(2,6-Dimethoxy-phenyl)-3-(3-fluoro-4-trifluoromethoxy-benzyl)-5,5-dimethyl-oxazolidin-4-one]",IC50,human orexin-1 receptor,25 nM
same,IC50,human orexin-2 receptor,322 nM
"COc1cccc(OC)c1C1OC(C)(C)C(=O)N1Cc1nc2ccccc2o1 (stereo not shown) [Example 68, 3-Benzooxazol-2-ylmethyl-2-(2,6-dimethoxy-phenyl)-5,5-dimethyl-oxazolidin-4-one]",IC50,human orexin-1 receptor,2940 nM
same,IC50,human orexin-2 receptor,508 nM
"COc1cccc(OC)c1C1OC(C)(C)C(=O)N1Cc1ccc(OC(F)F)cc1 (stereo not shown) [Example 69, 3-(4-Difluoromethoxy-benzyl)-2-(2,6-dimethoxy-phenyl)-5,5-dimethyl-oxazolidin-4-one]",IC50,human orexin-1 receptor,187 nM
same,IC50,human orexin-2 receptor,928 nM
"COc1cccc(OC)c1C1OC(C)(C)C(=O)N1Cc1nc2ccccc2n1C (stereo not shown) [Example 70, 2-(2,6-Dimethoxy-phenyl)-5,5-dimethyl-3-(1-methyl-1H-benzoimidazol-2-ylmethyl)-oxazolidin-4-one]",IC50,human orexin-1 receptor,65 nM
same,IC50,human orexin-2 receptor,1300 nM
"COc1cccc(OC)c1C1OC(C)(C)C(=O)N1Cc1ccc2c(c1)OCO2 (stereo not shown) [Example 71, 3-Benzo[1,3]dioxol-5-ylmethyl-2-(2,6-dimethoxy-phenyl)-5,5-dimethyl-oxazolidin-4-one]",IC50,human orexin-1 receptor,150 nM
same,IC50,human orexin-2 receptor,1660 nM
"COc1ccc(CN2C(=O)C(C)(C)OC2c2c(OC)cccc2OC)cc1 (stereo not shown) [Example 72, 2-(2,6-Dimethoxy-phenyl)-3-(4-methoxy-benzyl)-5,5-dimethyl-oxazolidin-4-one]",IC50,human orexin-1 receptor,188 nM
same,IC50,human orexin-2 receptor,2270 nM
"CCCOc1ccc(CN2C(=O)[C@@H](C)OC2c2c(OC)cccc2OC)cc1 (stereo partly drawn) [Example 73, 2-(2,6-Dimethoxy-phenyl)-(R)-5-methyl-3-(4-propoxy-benzyl)-oxazolidin-4-one]",IC50,human orexin-1 receptor,581 nM
same,IC50,human orexin-2 receptor,86 nM
"COc1cccc(OC)c1C1O[C@H](C)C(=O)N1Cc1ccc(OC(C)C)cc1 (stereo partly drawn) [Example 74, 2-(2,6-Dimethoxy-phenyl)-3-(4-isopropoxy-benzyl)-(R)-5-methyl-oxazolidin-4-one]",IC50,human orexin-1 receptor,1210 nM
same,IC50,human orexin-2 receptor,95 nM
"COc1cccc(OC)c1C1O[C@H](C)C(=O)N1Cc1ccc(OCC2CC2)cc1 (stereo partly drawn) [Example 75, 3-(4-Cyclopropylmethoxy-benzyl)-2-(2,6-dimethoxy-phenyl)-(R)-5-methyl-oxazolidin-4-one]",IC50,human orexin-1 receptor,1760 nM
same,IC50,human orexin-2 receptor,123 nM
"COc1cccc(OC)c1C1OC(C)(C)C(=O)N1Cc1ccc(OC(C)C)cc1 (stereo not shown) [Example 76, 2-(2,6-Dimethoxy-phenyl)-3-(4-isopropoxy-benzyl)-5,5-dimethyl-oxazolidin-4-one]",IC50,human orexin-1 receptor,114 nM
same,IC50,human orexin-2 receptor,193 nM
"CCCOc1ccc(CN2C(=O)C(C)(C)OC2c2c(OC)cccc2OC)cc1 (stereo not shown) [Example 77, 2-(2,6-Dimethoxy-phenyl)-5,5-dimethyl-3-(4-propoxy-benzyl)-oxazolidin-4-one]",IC50,human orexin-1 receptor,114 nM
same,IC50,human orexin-2 receptor,484 nM
"COc1cccc(OC)c1C1OC(C)(C)C(=O)N1Cc1ccc(OCC2CC2)cc1 (stereo not shown) [Example 78, 3-(4-Cyclopropylmethoxy-benzyl)-2-(2,6-dimethoxy-phenyl)-5,5-dimethyl-oxazolidin-4-one]",IC50,human orexin-1 receptor,472 nM
same,IC50,human orexin-2 receptor,620 nM
"CCOc1ccc(CN2C(=O)[C@@H](C)O[C@@H]2c2c(OC)cccc2OC)cc1 [Example 79, 2-(2,6-Dimethoxy-phenyl)-3-(4-ethoxy-benzyl)-(r)-5-methyl-oxazolidin-4-one]",IC50,human orexin-1 receptor,830 nM
same,IC50,human orexin-2 receptor,864 nM
"CCOc1ccc(CN2C(=O)C(C)(C)OC2c2c(OC)cccc2OC)cc1 (stereo not shown) [Example 80, 2-(2,6-Dimethoxy-phenyl)-3-(4-ethoxy-benzyl)-5,5-dimethyl-oxazolidin-4-one]",IC50,human orexin-1 receptor,139 nM
same,IC50,human orexin-2 receptor,1940 nM
"Cc1cccc(C)c1C1OC(C)(C)C(=O)N1Cc1ccc(OC(F)(F)F)c(Cl)c1 (stereo not shown) [Example 81, 3-(3-Chloro-4-trifluoromethoxy-benzyl)-2-(2,6-dimethyl-phenyl)-5,5-dimethyl-oxazolidin-4-one]",IC50,human orexin-1 receptor,920 nM
same,IC50,human orexin-2 receptor,88 nM
"CC1(C)OC(c2c(F)cccc2F)N(Cc2ccc(OC(F)(F)F)c(Cl)c2)C1=O (stereo not shown) [Example 82, 3-(3-Chloro-4-trifluoromethoxy-benzyl)-2-(2,6-difluoro-phenyl)-5,5-dimethyl-oxazolidin-4-one]",IC50,human orexin-1 receptor,336 nM
same,IC50,human orexin-2 receptor,110 nM
"COc1cccc(C)c1C1OC(C)(C)C(=O)N1Cc1ccc(OC(F)(F)F)c(Cl)c1 (stereo not shown) [Example 83, 3-(3-Chloro-4-trifluoromethoxy-benzyl)-2-(2-methoxy-6-methyl-phenyl)-5,5-dimethyl-oxazolidin-4-one]",IC50,human orexin-1 receptor,133 nM
same,IC50,human orexin-2 receptor,69 nM
"COc1cccc(F)c1C1OC(C)(C)C(=O)N1Cc1ccc(Oc2ccccc2)cc1 (stereo not shown) [Example 84, 2-(2-Fluoro-6-methoxy-phenyl)-5,5-dimethyl-3-(4-phenoxy-benzyl)-oxazolidin-4-one]",IC50,human orexin-1 receptor,421 nM
same,IC50,human orexin-2 receptor,46 nM
